In publication PMC6430017, “Structural and chemical insights into the covalent-allosteric inhibition of the protein kinase Akt” (Chemical Science, 2019):

biological target: RET (Homo sapiens, UniProt P07949); assay: SelectScreen Z'LYTE kinase profiling; type: biochemical; settings: ATP at apparent KM
Sequence (P07949 29-1114): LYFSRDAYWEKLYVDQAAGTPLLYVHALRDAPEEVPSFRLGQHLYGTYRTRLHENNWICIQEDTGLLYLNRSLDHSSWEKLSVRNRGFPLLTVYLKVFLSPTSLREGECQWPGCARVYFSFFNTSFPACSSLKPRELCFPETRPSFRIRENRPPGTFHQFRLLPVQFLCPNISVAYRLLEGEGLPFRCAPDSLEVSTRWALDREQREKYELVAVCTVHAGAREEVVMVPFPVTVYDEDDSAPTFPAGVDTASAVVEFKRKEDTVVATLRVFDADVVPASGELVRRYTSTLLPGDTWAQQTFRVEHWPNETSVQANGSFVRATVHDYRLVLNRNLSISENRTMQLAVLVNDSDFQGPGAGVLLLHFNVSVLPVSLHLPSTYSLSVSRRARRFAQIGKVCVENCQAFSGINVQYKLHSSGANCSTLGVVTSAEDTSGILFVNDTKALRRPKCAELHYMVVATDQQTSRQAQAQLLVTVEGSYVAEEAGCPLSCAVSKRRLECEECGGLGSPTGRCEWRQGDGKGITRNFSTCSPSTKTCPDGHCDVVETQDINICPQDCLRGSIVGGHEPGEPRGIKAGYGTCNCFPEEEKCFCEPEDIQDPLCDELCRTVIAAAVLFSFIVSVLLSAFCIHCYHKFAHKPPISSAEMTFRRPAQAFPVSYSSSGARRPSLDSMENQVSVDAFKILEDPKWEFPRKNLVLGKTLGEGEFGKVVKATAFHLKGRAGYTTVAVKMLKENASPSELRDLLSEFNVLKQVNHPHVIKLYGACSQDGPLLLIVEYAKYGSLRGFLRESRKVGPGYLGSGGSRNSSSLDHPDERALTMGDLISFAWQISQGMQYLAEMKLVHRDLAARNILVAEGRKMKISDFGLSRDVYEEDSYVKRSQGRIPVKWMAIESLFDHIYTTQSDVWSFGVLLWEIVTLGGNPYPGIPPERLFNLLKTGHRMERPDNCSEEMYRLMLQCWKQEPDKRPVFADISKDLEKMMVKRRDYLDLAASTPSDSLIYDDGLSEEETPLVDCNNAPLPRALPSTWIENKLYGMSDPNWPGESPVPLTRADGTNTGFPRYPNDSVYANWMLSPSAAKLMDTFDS
Description: (§1) protein kinases at a compound concentration of 1 µM. Measurements were performed in duplicates
(§2) and at the particular apparent ATP KM of each individual kinase employing the activity based Z’LYTE®
(§3) kinase assay of the SelectScreen® Kinase Profiling Services (ThermoFisher Scientific).
(§4) kinases at a compound concentration of 1 µM. Measurements were performed in duplicates and at
(§5) the particular apparent ATP KM of each individual kinase employing the activity based Z’LYTE® kinase
(§6) assay of the SelectScreen® Kinase Profiling Services (ThermoFisher Scientific).

SMILES	inhibition at 1 µM
C=CC(=O)Nc1ccc2c(c1)n(C1CCN(Cc3ccc(-c4nc5cc[nH]c(=O)c5cc4-c4ccccc4)cc3)CC1)c(=O)n2C [24b]	10%
C=CC(=O)Nc1cccc(C(=O)NC2CCN(Cc3ccc(-c4nc5cc[nH]c(=O)c5cc4-c4ccccc4)cc3)CC2)c1 [30b]	19%
C=CC(=O)Nc1cc(NC(=O)NC2CCN(Cc3ccc(-c4nc5cc[nH]c(=O)c5cc4-c4ccccc4)cc3)CC2)ccc1Cl [compound 27]	26%

biological target: T1, STK4 (MST1) (Homo sapiens, UniProt Q13043); assay: SelectScreen Z'LYTE kinase profiling; type: biochemical; settings: ATP at apparent KM
T1 sequence (Q13043 1-487): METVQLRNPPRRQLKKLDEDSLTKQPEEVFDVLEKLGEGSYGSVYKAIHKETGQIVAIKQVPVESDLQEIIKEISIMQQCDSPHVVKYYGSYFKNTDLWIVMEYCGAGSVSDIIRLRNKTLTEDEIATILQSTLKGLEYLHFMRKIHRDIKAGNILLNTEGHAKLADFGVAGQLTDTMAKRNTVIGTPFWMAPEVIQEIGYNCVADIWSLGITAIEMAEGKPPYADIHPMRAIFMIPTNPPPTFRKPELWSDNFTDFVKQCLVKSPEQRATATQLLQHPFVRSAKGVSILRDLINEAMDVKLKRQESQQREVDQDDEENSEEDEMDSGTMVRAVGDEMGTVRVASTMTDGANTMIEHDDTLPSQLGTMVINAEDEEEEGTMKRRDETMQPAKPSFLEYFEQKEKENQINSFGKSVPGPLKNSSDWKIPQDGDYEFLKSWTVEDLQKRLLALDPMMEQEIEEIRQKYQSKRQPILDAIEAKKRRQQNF

SMILES	inhibition at 1 µM
C=CC(=O)Nc1ccc2c(c1)n(C1CCN(Cc3ccc(-c4nc5cc[nH]c(=O)c5cc4-c4ccccc4)cc3)CC1)c(=O)n2C [24b]	6%
C=CC(=O)Nc1cccc(C(=O)NC2CCN(Cc3ccc(-c4nc5cc[nH]c(=O)c5cc4-c4ccccc4)cc3)CC2)c1 [30b]	7%
C=CC(=O)Nc1cc(NC(=O)NC2CCN(Cc3ccc(-c4nc5cc[nH]c(=O)c5cc4-c4ccccc4)cc3)CC2)ccc1Cl [compound 27]	14%

biological target: T2, PRKD2 (PKD2) (Homo sapiens, UniProt Q9BZL6); assay: SelectScreen Z'LYTE kinase profiling; type: biochemical; settings: ATP at apparent KM
T2 sequence (Q9BZL6 1-878): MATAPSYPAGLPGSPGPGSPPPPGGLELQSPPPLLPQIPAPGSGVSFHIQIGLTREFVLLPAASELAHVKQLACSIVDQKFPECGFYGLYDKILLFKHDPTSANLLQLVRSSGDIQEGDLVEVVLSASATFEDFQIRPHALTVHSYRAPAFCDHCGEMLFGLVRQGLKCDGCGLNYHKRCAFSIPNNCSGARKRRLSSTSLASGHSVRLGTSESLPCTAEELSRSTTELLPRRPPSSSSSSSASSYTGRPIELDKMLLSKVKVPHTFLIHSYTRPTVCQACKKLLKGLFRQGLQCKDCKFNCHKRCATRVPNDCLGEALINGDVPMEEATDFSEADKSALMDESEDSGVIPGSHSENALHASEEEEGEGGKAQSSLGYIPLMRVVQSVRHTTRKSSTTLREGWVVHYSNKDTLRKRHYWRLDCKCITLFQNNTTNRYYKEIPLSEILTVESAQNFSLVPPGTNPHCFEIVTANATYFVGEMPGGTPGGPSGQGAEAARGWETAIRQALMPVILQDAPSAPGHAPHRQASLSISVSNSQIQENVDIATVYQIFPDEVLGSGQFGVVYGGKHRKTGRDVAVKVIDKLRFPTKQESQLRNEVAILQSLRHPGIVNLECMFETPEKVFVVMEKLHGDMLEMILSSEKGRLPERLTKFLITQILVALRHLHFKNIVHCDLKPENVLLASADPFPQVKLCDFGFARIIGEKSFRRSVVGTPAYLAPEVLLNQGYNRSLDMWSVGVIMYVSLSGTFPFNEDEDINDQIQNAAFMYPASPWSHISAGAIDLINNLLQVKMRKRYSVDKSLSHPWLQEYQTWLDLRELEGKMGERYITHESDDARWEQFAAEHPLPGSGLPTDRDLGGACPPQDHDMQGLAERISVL
Description: as §1, §2, §3, §4, §5, §6

SMILES	inhibition at 1 µM
C=CC(=O)Nc1ccc2c(c1)n(C1CCN(Cc3ccc(-c4nc5cc[nH]c(=O)c5cc4-c4ccccc4)cc3)CC1)c(=O)n2C [24b]	3%
C=CC(=O)Nc1cccc(C(=O)NC2CCN(Cc3ccc(-c4nc5cc[nH]c(=O)c5cc4-c4ccccc4)cc3)CC2)c1 [30b]	4%
C=CC(=O)Nc1cc(NC(=O)NC2CCN(Cc3ccc(-c4nc5cc[nH]c(=O)c5cc4-c4ccccc4)cc3)CC2)ccc1Cl [compound 27]	5%

biological target: T3, FLT3 (Homo sapiens, UniProt P36888); assay: SelectScreen Z'LYTE kinase profiling; type: biochemical; settings: ATP at apparent KM
T3 sequence (P36888 27-993): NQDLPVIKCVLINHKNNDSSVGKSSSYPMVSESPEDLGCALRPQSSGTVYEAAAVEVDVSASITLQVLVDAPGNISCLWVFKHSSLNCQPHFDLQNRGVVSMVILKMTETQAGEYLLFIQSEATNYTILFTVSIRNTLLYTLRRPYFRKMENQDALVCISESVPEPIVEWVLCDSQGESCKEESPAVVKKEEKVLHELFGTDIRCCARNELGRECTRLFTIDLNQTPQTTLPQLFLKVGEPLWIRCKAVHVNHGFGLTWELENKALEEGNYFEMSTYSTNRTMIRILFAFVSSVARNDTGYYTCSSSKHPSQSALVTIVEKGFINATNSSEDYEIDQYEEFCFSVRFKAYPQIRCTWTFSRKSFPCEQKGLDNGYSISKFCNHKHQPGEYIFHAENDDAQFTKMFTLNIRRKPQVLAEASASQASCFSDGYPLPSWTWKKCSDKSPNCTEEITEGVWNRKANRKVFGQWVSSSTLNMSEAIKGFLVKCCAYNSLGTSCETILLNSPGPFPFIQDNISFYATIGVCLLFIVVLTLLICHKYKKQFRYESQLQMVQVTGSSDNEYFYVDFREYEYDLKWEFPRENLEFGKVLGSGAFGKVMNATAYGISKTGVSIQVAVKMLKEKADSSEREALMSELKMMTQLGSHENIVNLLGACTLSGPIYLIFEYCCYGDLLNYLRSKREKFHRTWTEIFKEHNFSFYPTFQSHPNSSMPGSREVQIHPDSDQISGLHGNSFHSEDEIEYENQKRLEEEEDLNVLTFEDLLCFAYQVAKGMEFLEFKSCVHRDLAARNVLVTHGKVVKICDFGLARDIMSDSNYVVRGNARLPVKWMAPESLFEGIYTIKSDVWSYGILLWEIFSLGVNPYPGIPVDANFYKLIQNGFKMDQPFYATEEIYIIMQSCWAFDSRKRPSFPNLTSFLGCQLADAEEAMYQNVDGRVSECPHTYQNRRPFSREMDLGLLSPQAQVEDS
Description: as §1, §2, §3, §4, §5, §6

SMILES	inhibition at 1 µM
C=CC(=O)Nc1ccc2c(c1)n(C1CCN(Cc3ccc(-c4nc5cc[nH]c(=O)c5cc4-c4ccccc4)cc3)CC1)c(=O)n2C [24b]	7%
C=CC(=O)Nc1cccc(C(=O)NC2CCN(Cc3ccc(-c4nc5cc[nH]c(=O)c5cc4-c4ccccc4)cc3)CC2)c1 [30b]	14%
C=CC(=O)Nc1cc(NC(=O)NC2CCN(Cc3ccc(-c4nc5cc[nH]c(=O)c5cc4-c4ccccc4)cc3)CC2)ccc1Cl [compound 27]	14%
